{"source": "patent US12533427B2", "about": "“Radioactive antitumor agent” (National Institutes for Quantum Science and Technology, priority 2017, dated 2026)", "key": {"CD133-positive cells": {"test_system": "CD133-positive cells", "settings": "Non-Patent Literature 2; cited from earlier work"}, "[1]": {"test_system": "U87MG cells from human glioblastoma", "test": "Tumor growth in U87MG tumor-bearing mouse", "format": "in vivo, BALB/c nude mouse", "settings": "for rate of tumor volume ratio to tumor volume ratio of the control group on day 39: single i.v. administration", "experimental": "(§1) U87MG cells from human glioblastoma were purchased from ATCC, and utilized after growing. A U87MG tumor-bearing model was made by implanting 1×10^7 U87MG cells subcutaneously into the flanks of BALB/c nude mouse (male, 6 weeks old, weighing approximately 20 to 25 g, obtained from Japan SLC). The tumor-bearing mice were subjected to tests when the tumor diameter reached around 5 mm after transplantation of U87MG cells.\n(§2) The tumor-bearing mice were randomized into […] (n=7/group), and were intravenously administered with different single doses of ^64Cu-ATSM with 18.5, 37, 74, 111 and 148 MBq, and physiological saline as a control, respectively. To the remaining one group, ^64Cu-ATSM was administered intravenously at a dose of 37 MBq on days 0, 7, 21 and 28 of four times in total (37 MBq×4).\n(§3) In each of the following evaluations, data were presented as mean value±standard deviation. Two-way analysis of variance was used in the significant difference test of the data, excluding the survival curve. A Log-rank test was used for the data of the survival curve. Significant levels used were all 5%.\n(§4) After the start of the study, mice were weighed twice a week over time, and the size of the tumor was measured with a caliper. The tumor volume was calculated with the formula: tumor volume=length×width^2×π/6, and the tumor volume on each day was expressed as a percentage relative to the initial tumor volume on day 0."}, "[2]": {"test": "Measurement of biochemical parameters (liver and renal function) in non-tumor-bearing mice", "format": "in vivo, mouse", "settings": "any administration group; plasma, day 49", "experimental": "as §3\nTo evaluate side effects, biochemical parameters were measured using non-tumor-bearing mice (n=5/group) treated in a manner similar to the tumor-bearing mice described above.\nThe measurements of biochemical parameters were performed by measuring amounts of glutamate pyruvate transaminase and alkaline phosphatase for liver function and amounts of urea nitrogen and creatinine for renal function using mouse plasma prepared from blood collected from heart on day 49 after the first administration of ^64Cu-ATSM, with a blood biochemical analyzer (FUJI DRI-CHEM 7000VZ, manufactured by FUJIFILM Corporation)."}, "[3]": {"test_system": "glioblastoma showing high HIF-1α expression", "settings": "clinical PET investigations; cited from earlier work"}, "[4]": {"test": "Body weight change of U87MG tumor-bearing mice", "format": "in vivo, BALB/c nude mouse", "experimental": "as §2, §3, §4"}, "[5]": {"test_system": "CD133-positive cells in tumors", "settings": "Non-Patent Literatures 3 and 4; cited from earlier work"}, "[6]": {"settings": "therapeutic dose calculated from 37 MBq per mouse; cited from earlier work"}, "[7]": {"test_system": "U87MG cells from human glioblastoma", "test": "Survival curve for 80 days of U87MG tumor-bearing mice", "format": "in vivo, BALB/c nude mouse", "experimental": "as §1, §2, §3\nAfter the start of the study, the mice were slaughtered at the time when the tumor volume reached the humanitarian endpoint. Survivability for 80 days was observed, and the survival rate was calculated."}, "[8]": {"test": "Measurement of hematological parameters in non-tumor-bearing mice", "format": "in vivo, mouse", "experimental": "as §3\nTo evaluate side effects, hematological parameters were measured using non-tumor-bearing mice (n=5/group) treated in a manner similar to the tumor-bearing mice described above.\nThe measurement of hematological parameters was performed by measuring concentrations of white blood cells, red blood cells and platelets using blood collected from the vein at the start point (day 0) immediately before administration of ^64Cu-ATSM and on days 2, 7, 14, 21, 28, 35, 42 and 49 after administration of ^64Cu-ATSM, with a blood analyzer (Celltac MEK-6458, manufactured by NIHON KOHDEN CORPORATION)."}, "[9]": {"test": "Internal exposure dose estimate for human", "experimental": "Meanwhile, the internal exposure dose with ^64Cu-ATSM was maximum in the liver, and was 0.108 mSv/MBq. This means that when 150 MBq/kg of ^64Cu-ATSM is administered to a human weighing 60 kg, the exposure dose is 16.2 mGy/kg for the liver and 972 mSv for the whole body. When this exposure dose is applied to normal radiotherapy, it corresponds to an exposure equal to single irradiation of 1.215 Gy, which is lower than the single irradiation dose (1.8 to 2.0 Gy) of normal split irradiation in radiotherapy. Also, when 450 MBq/kg is administered to a human weighing 60 kg, the exposure dose is 48.6 mGy/kg for the liver and 2,916 mSv for the whole body. Since the tolerance dose of the liver in normal split irradiation is 30 Gy as a dose that causes side effects in 5% in 5 years, the total dose when administered a total of four times during normal radiotherapy of about 3 Gy will be 11.66 Gy, which is lower than the tolerance dose of the liver described above.\nThe present inventors have also reported estimates of irradiation doses of ^64Cu-ATSM for human based on in vivo distribution in normal mouse tissue (see, Yoshii Y, Furukawa T, Matsumoto H, Yoshimoto M, Kiyono Y, Zhang M R, Fujibayashi Y, and Saga T (2016) Cu-ATSM therapy targets regions with activated DNA repair and enrichment of CD133 cells in an HT-29 tumor model: Sensitization with a nucleic acid antimetabolite. Cancer Lett 376: 74-82 and Yoshii Y, Matsumoto H, Yoshimoto M, Furukawa T, Morokoshi Y, Sogawa C, Zhang M R, Wakizaka H, Yoshii H, Fujibayashi Y, and Saga T (2014) Controlled administration of penicillamine reduces radiation exposure in critical organs during ^64Cu-ATSM internal radiotherapy: a novel strategy for liver protection. PloS one 9: e86996). […] Thus, doses in the multiple administration of ^64Cu-ATSM to human according to the present invention can be determined as appropriate based on data of therapeutic effect and toxicity in mouse in the present invention. PET imaging of ^64Cu-ATSM may also be performed to monitor the irradiation dose of tumors and tissues during ^64Cu-ATSM therapy for human according to the present invention, thereby enabling theranostics of cancer."}, "[10]": {"settings": "37 MBq four-time administration (37 MBq×4)"}, "[11]": {"settings": "111 and 148 MBq single administration"}, "[12]": {"settings": "150 MBq/kg to a human weighing 60 kg"}, "[13]": {"settings": "450 MBq/kg to a human weighing 60 kg"}}}
{"substance": "radioactive diacetyl-bis(N4-methylthiosemicarbazone) copper complex [^64Cu-ATSM]", "values": [{"measurement": "accumulation in cells", "setting": "CD133-positive cells", "value": "accumulates in CD133-positive cells"}, {"measurement": "tumor growth compared to the control group", "setting": "[1]; 37 MBq four times (37 MBq×4)", "value": "significantly greater inhibition effect of tumor growth"}, {"measurement": "mice with tumors nearly invisible on day 39", "setting": "[1]; 37 MBq four-time administration (37 MBq×4), day 39", "value": 6, "unit": "cases among 7 mice"}, {"measurement": "rate of tumor volume ratio to that of the control group on day 39", "setting": "[1]; 37 MBq four-time administration (37 MBq×4; days 0, 7, 21, 28), i.v., day 39", "value": 0.04}, {"measurement": "rate of tumor volume ratio to tumor volume ratio of the control group on day 39", "setting": "[1]; fifth of five printed values, 148 MBq, day 39", "value": 0.14}, {"measurement": "rate of tumor volume ratio to tumor volume ratio of the control group on day 39", "setting": "[1]; first of five printed values, presumably 18.5 MBq, day 39", "value": 0.82}, {"measurement": "rate of tumor volume ratio to tumor volume ratio of the control group on day 39", "setting": "[1]; fourth of five printed values, presumably 111 MBq, day 39", "value": 0.14}, {"measurement": "rate of tumor volume ratio to tumor volume ratio of the control group on day 39", "setting": "[1]; second of five printed values, presumably 37 MBq, day 39", "value": 0.31}, {"measurement": "dose dependence of antitumor effect", "setting": "[1]; single administration 18.5-148 MBq", "value": "dose-dependent antitumor effect, showing a plateau at 111 MBq"}, {"measurement": "tumor growth compared to the control group", "setting": "[1]; single administration at 37, 74, 111 and 148 MBq, 39 days", "value": "significantly inhibited tumor growth"}, {"measurement": "tumor growth compared to the control group", "setting": "[1]; single administration of 18.5 MBq", "value": "inhibited tumor growth compared to the control group, but showed no significant difference"}, {"measurement": "rate of tumor volume ratio to tumor volume ratio of the control group on day 39", "setting": "[1]; third of five printed values, presumably 74 MBq, day 39", "value": 0.28}, {"measurement": "alkaline phosphatase (ALP) compared to control", "setting": "[2]", "value": "no significant differences"}, {"measurement": "blood urea nitrogen (BUN) compared to control", "setting": "[2]", "value": "no significant differences"}, {"measurement": "creatinine (CRE) compared to control", "setting": "[2]", "value": "no significant differences"}, {"measurement": "glutamate pyruvate transaminase (GPT) compared to control", "setting": "[2]", "value": "no significant differences"}, {"measurement": "accumulation in tumor (PET)", "setting": "[3]", "value": "accumulates in highly malignant grade glioblastoma showing high HIF-1α expression"}, {"measurement": "body weight loss", "setting": "[4]; [10]", "value": "No body weight loss was observed"}, {"measurement": "recovery of body weight", "setting": "[4]; [11]", "value": "returned to normal body weight by day 14"}, {"measurement": "body weight compared to the control group", "setting": "[4]; 111 and 148 MBq single administration, day 7", "value": "significantly reduced"}, {"measurement": "effect on CD133-positive cells in tumors", "setting": "[5]", "value": "reduce CD133-positive cells in tumors"}, {"measurement": "estimated irradiation doses to liver, red bone marrow and ovary in human", "setting": "[6]", "value": "lower than the acceptable dose"}, {"measurement": "survival rate compared to the control group", "setting": "[7]; 37, 74, 111 and 148 MBq single administration groups and 37 MBq×4 group, 80 days", "value": "higher than that of the control group"}, {"measurement": "survival time compared to the 111 MBq single administration group", "setting": "[7]; [10]", "value": "longer survival time than the 111 MBq single administration group, but no significant difference"}, {"measurement": "life-extending effect compared to the control group, single administration groups", "setting": "[7]; 111 MBq single administration", "value": "significant life-extending effect"}, {"measurement": "survival effect among the single administration groups", "setting": "[7]; 111 MBq single administration", "value": "highest survival effect"}, {"measurement": "survival time compared to the 18.5, 37, 74 and 148 MBq single administration groups", "setting": "[7]; 111 MBq single administration group and 37 MBq×4 group", "value": "significantly longer survival time"}, {"measurement": "hematological toxicity", "setting": "[8]; 37 MBq four-time administration (37 MBq×4), throughout the study period", "value": "no symptoms of hematological toxicity were observed"}, {"measurement": "recovery of number of white blood cells", "setting": "[8]; 74, 111 and 148 MBq single administration", "value": "recovered to normal on day 21"}, {"measurement": "number of white blood cells (WBC)", "setting": "[8]; 74 and 111 MBq single administration, day 2", "value": "significant reductions"}, {"measurement": "number of platelets (PLT)", "setting": "[8]; 111 MBq single administration, day 7", "value": "significant reduction"}, {"measurement": "recovery of number of platelets", "setting": "[8]; [11]", "value": "recovered to normal on day 14"}, {"measurement": "number of white blood cells (WBC)", "setting": "[8]; 111 and 148 MBq single administration, days 7 and 14", "value": "significant reductions"}, {"measurement": "recovery of number of red blood cells", "setting": "[8]; 148 MBq single administration", "value": "recovered to normal on day 14"}, {"measurement": "number of red blood cells (RBC)", "setting": "[8]; 148 MBq single administration, day 7", "value": "significant reduction"}, {"measurement": "number of platelets (PLT)", "setting": "[8]; 148 MBq single administration, days 2 and 7", "value": "significant reductions"}, {"measurement": "exposure dose for the liver", "setting": "[9]; [12]", "value": 16.2, "unit": "mGy/kg"}, {"measurement": "exposure dose for the whole body", "setting": "[9]; [12]", "value": 972, "unit": "mSv"}, {"measurement": "exposure equal to single irradiation of normal radiotherapy", "setting": "[9]; [12]", "value": 1.215, "unit": "Gy"}, {"measurement": "exposure dose for the liver", "setting": "[9]; [13]", "value": 48.6, "unit": "mGy/kg"}, {"measurement": "exposure dose for the whole body", "setting": "[9]; [13]", "value": "2,916 mSv"}, {"measurement": "total dose when administered a total of four times", "setting": "[9]; 450 MBq/kg to a human weighing 60 kg, four times", "value": 11.66, "unit": "Gy"}, {"measurement": "internal exposure dose, liver (maximum organ)", "setting": "[9]; liver", "value": 0.108, "unit": "mSv/MBq"}]}
